# Measured values reported in PubChem BioAssay (NCI).
#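 Compound exposure: 48 hours, 5 concentrations, 96-well plates. Definition used: TGI = concentration required for complete inhibition of growth.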
# How the values were obtained:
# Experiment in all cases: NCI-60 cell line screen, 48 h
# 786-0 renal = test system: 786-0 renal
# A498 renal = test system: A498 renal
# A549 NSCLC = test system: A549 NSCLC
# ACHN renal = test system: ACHN renal
# CAKI-1 renal = test system: CAKI-1 renal
# CCRF-CEM leukemia = test system: CCRF-CEM leukemia
# COLO 205 colon = test system: COLO 205 colon
# DLD-1 colon = test system: DLD-1 colon
# DMS 114 small cell lung = test system: DMS 114 small cell lung
# DMS 273 small cell lung = test system: DMS 273 small cell lung
# EKVX NSCLC = test system: EKVX NSCLC
# HCC-2998 colon = test system: HCC-2998 colon
# HCT-116 colon = test system: HCT-116 colon
# HCT-15 colon = test system: HCT-15 colon
# HL-60(TB) leukemia = test system: HL-60(TB) leukemia
# HOP-18 NSCLC = test system: HOP-18 NSCLC
# HOP-92 NSCLC = test system: HOP-92 NSCLC
# HT29 colon = test system: HT29 colon
# IGROV1 ovarian = test system: IGROV1 ovarian
# K-562 leukemia = test system: K-562 leukemia
# KM12 colon = test system: KM12 colon
# LOX IMVI melanoma = test system: LOX IMVI melanoma
# LXFL 529 NSCLC = test system: LXFL 529 NSCLC
# M14 melanoma = test system: M14 melanoma
# M19-MEL melanoma = test system: M19-MEL melanoma
# MALME-3M melanoma = test system: MALME-3M melanoma
# MOLT-4 leukemia = test system: MOLT-4 leukemia
# NCI-H226 lung = test system: NCI-H226 lung
# NCI-H23 lung = test system: NCI-H23 lung
# NCI-H460 lung = test system: NCI-H460 lung
# NCI-H522 lung = test system: NCI-H522 lung
# OVCAR-3 ovarian = test system: OVCAR-3 ovarian
# OVCAR-8 ovarian = test system: OVCAR-8 ovarian
# RPMI-8226 leukemia = test system: RPMI-8226 leukemia
# RXF 393 renal = test system: RXF 393 renal
# SF-295 CNS = test system: SF-295 CNS
# SF-539 CNS = test system: SF-539 CNS
# SK-MEL-28 melanoma = test system: SK-MEL-28 melanoma
# SK-MEL-5 melanoma = test system: SK-MEL-5 melanoma
# SK-OV-3 ovarian = test system: SK-OV-3 ovarian
# SN12C renal = test system: SN12C renal
# SNB-19 CNS = test system: SNB-19 CNS
# SNB-75 CNS = test system: SNB-75 CNS
# SNB-78 CNS = test system: SNB-78 CNS
# SW-620 colon = test system: SW-620 colon
# TK-10 renal = test system: TK-10 renal
# U251 CNS = test system: U251 CNS
# UACC-257 melanoma = test system: UACC-257 melanoma
# UACC-62 melanoma = test system: UACC-62 melanoma
# UO-31 renal = test system: UO-31 renal
# BT-549 breast = test system: BT-549 breast
# DU-145 prostate = test system: DU-145 prostate
# HOP-62 NSCLC = test system: HOP-62 NSCLC
# HS 578T breast = test system: HS 578T breast
# MCF7 breast = test system: MCF7 breast
# MDA-MB-231 breast = test system: MDA-MB-231 breast
# MDA-MB-435 = test system: MDA-MB-435
# MDA-N = test system: MDA-N
# NCI/ADR-RES ovarian = test system: NCI/ADR-RES ovarian
# OVCAR-5 ovarian = test system: OVCAR-5 ovarian
# PC-3 prostate = test system: PC-3 prostate
# SF-268 CNS = test system: SF-268 CNS
# SK-MEL-2 melanoma = test system: SK-MEL-2 melanoma
# SR leukemia = test system: SR leukemia
# T-47D breast = test system: T-47D breast
# KM20L2 colon = test system: KM20L2 colon
# OVCAR-4 ovarian = test system: OVCAR-4 ovarian
structure (smiles),measurement,setting,value
NC(CCc1nc(-c2ccccc2)cs1)C(=O)O (configuration not stated),TGI,786-0 renal,> 100 µM
same,TGI,A498 renal,> 100 µM
same,TGI,A549 NSCLC,> 100 µM
same,TGI,ACHN renal,> 100 µM
same,TGI,CAKI-1 renal,> 100 µM
same,TGI,CCRF-CEM leukemia,> 100 µM
same,TGI,COLO 205 colon,> 100 µM
same,TGI,DLD-1 colon,> 100 µM
same,TGI,DMS 114 small cell lung,> 100 µM
same,TGI,DMS 273 small cell lung,> 100 µM
same,TGI,EKVX NSCLC,> 100 µM
same,TGI,HCC-2998 colon,> 100 µM
same,TGI,HCT-116 colon,> 100 µM
same,TGI,HCT-15 colon,> 100 µM
same,TGI,HL-60(TB) leukemia,> 100 µM
same,TGI,HOP-18 NSCLC,> 100 µM
same,TGI,HOP-92 NSCLC,> 100 µM
same,TGI,HT29 colon,> 100 µM
same,TGI,IGROV1 ovarian,> 100 µM
same,TGI,K-562 leukemia,> 100 µM
same,TGI,KM12 colon,> 100 µM
same,TGI,LOX IMVI melanoma,> 100 µM
same,TGI,LXFL 529 NSCLC,> 100 µM
same,TGI,M14 melanoma,> 100 µM
same,TGI,M19-MEL melanoma,> 100 µM
same,TGI,MALME-3M melanoma,> 100 µM
same,TGI,MOLT-4 leukemia,> 100 µM
same,TGI,NCI-H226 lung,> 100 µM
same,TGI,NCI-H23 lung,> 100 µM
same,TGI,NCI-H460 lung,> 100 µM
same,TGI,NCI-H522 lung,> 100 µM
same,TGI,OVCAR-3 ovarian,> 100 µM
same,TGI,OVCAR-8 ovarian,> 100 µM
same,TGI,RPMI-8226 leukemia,> 100 µM
same,TGI,RXF 393 renal,> 100 µM
same,TGI,SF-295 CNS,> 100 µM
same,TGI,SF-539 CNS,> 100 µM
same,TGI,SK-MEL-28 melanoma,> 100 µM
same,TGI,SK-MEL-5 melanoma,> 100 µM
same,TGI,SK-OV-3 ovarian,> 100 µM
same,TGI,SN12C renal,> 100 µM
same,TGI,SNB-19 CNS,> 100 µM
same,TGI,SNB-75 CNS,> 100 µM
same,TGI,SNB-78 CNS,> 100 µM
same,TGI,SW-620 colon,> 100 µM
same,TGI,TK-10 renal,> 100 µM
same,TGI,U251 CNS,> 100 µM
same,TGI,UACC-257 melanoma,> 100 µM
same,TGI,UACC-62 melanoma,> 100 µM
same,TGI,UO-31 renal,> 100 µM
COc1cc(CSc2ccc(O)cc2)cc(O)c1O,TGI,786-0 renal,> 100 µM
same,TGI,A498 renal,> 100 µM
same,TGI,A549 NSCLC,> 100 µM
same,TGI,ACHN renal,> 100 µM
same,TGI,BT-549 breast,63.6 µM
same,TGI,CAKI-1 renal,91.2 µM
same,TGI,CCRF-CEM leukemia,87 µM
same,TGI,COLO 205 colon,52.6 µM
same,TGI,DU-145 prostate,> 100 µM
same,TGI,EKVX NSCLC,> 100 µM
same,TGI,HCC-2998 colon,> 100 µM
same,TGI,HCT-116 colon,49.7 µM
same,TGI,HCT-15 colon,57.1 µM
same,TGI,HL-60(TB) leukemia,> 100 µM
same,TGI,HOP-62 NSCLC,> 100 µM
same,TGI,HOP-92 NSCLC,50.4 µM
same,TGI,HS 578T breast,> 100 µM
same,TGI,HT29 colon,46.8 µM
same,TGI,IGROV1 ovarian,> 100 µM
same,TGI,K-562 leukemia,> 100 µM
same,TGI,KM12 colon,91.9 µM
same,TGI,LOX IMVI melanoma,> 100 µM
same,TGI,M14 melanoma,43.7 µM
same,TGI,MALME-3M melanoma,> 100 µM
same,TGI,MCF7 breast,33.8 µM
same,TGI,MDA-MB-231 breast,73.5 µM
same,TGI,MDA-MB-435,94.6 µM
same,TGI,MDA-N,> 100 µM
same,TGI,MOLT-4 leukemia,> 100 µM
same,TGI,NCI-H226 lung,65.5 µM
same,TGI,NCI-H23 lung,> 100 µM
same,TGI,NCI-H522 lung,38.3 µM
same,TGI,NCI/ADR-RES ovarian,71.3 µM
same,TGI,OVCAR-3 ovarian,67.6 µM
same,TGI,OVCAR-5 ovarian,53.4 µM
same,TGI,OVCAR-8 ovarian,58.2 µM
same,TGI,PC-3 prostate,> 100 µM
same,TGI,RPMI-8226 leukemia,56.3 µM
same,TGI,RXF 393 renal,> 100 µM
same,TGI,SF-268 CNS,95.9 µM
same,TGI,SF-295 CNS,51.6 µM
same,TGI,SF-539 CNS,85.9 µM
same,TGI,SK-MEL-2 melanoma,79.1 µM
same,TGI,SK-MEL-28 melanoma,> 100 µM
same,TGI,SN12C renal,80.5 µM
same,TGI,SNB-19 CNS,> 100 µM
same,TGI,SNB-75 CNS,> 100 µM
same,TGI,SR leukemia,> 100 µM
same,TGI,SW-620 colon,> 100 µM
same,TGI,T-47D breast,53.4 µM
same,TGI,TK-10 renal,> 100 µM
same,TGI,U251 CNS,> 100 µM
same,TGI,UACC-257 melanoma,> 100 µM
same,TGI,UACC-62 melanoma,61.2 µM
same,TGI,UO-31 renal,> 100 µM
COC(=O)c1cc(Cl)ccc1NC(=O)C1CCCCC1,TGI,786-0 renal,> 100 µM
same,TGI,A549 NSCLC,> 100 µM
same,TGI,ACHN renal,> 100 µM
same,TGI,COLO 205 colon,> 100 µM
same,TGI,DMS 114 small cell lung,> 100 µM
same,TGI,DMS 273 small cell lung,> 100 µM
same,TGI,EKVX NSCLC,> 100 µM
same,TGI,HCC-2998 colon,> 100 µM
same,TGI,HCT-116 colon,> 100 µM
same,TGI,HCT-15 colon,> 100 µM
same,TGI,HOP-92 NSCLC,> 100 µM
same,TGI,HT29 colon,> 100 µM
same,TGI,K-562 leukemia,> 100 µM
same,TGI,KM12 colon,> 100 µM
same,TGI,KM20L2 colon,> 100 µM
same,TGI,LXFL 529 NSCLC,> 100 µM
same,TGI,MALME-3M melanoma,> 100 µM
same,TGI,MOLT-4 leukemia,> 100 µM
same,TGI,NCI-H226 lung,> 100 µM
same,TGI,NCI-H23 lung,> 100 µM
same,TGI,OVCAR-5 ovarian,> 100 µM
same,TGI,OVCAR-8 ovarian,> 100 µM
same,TGI,RPMI-8226 leukemia,> 100 µM
same,TGI,RXF 393 renal,> 100 µM
same,TGI,SF-268 CNS,> 100 µM
same,TGI,SF-295 CNS,> 100 µM
same,TGI,SF-539 CNS,> 100 µM
same,TGI,SK-MEL-2 melanoma,> 100 µM
same,TGI,SK-MEL-28 melanoma,> 100 µM
same,TGI,SN12C renal,> 100 µM
same,TGI,SNB-19 CNS,> 100 µM
same,TGI,SNB-78 CNS,> 100 µM
same,TGI,SR leukemia,> 100 µM
same,TGI,SW-620 colon,> 100 µM
same,TGI,TK-10 renal,> 100 µM
same,TGI,U251 CNS,> 100 µM
same,TGI,UACC-257 melanoma,> 100 µM
same,TGI,UO-31 renal,> 100 µM
CN(C)c1ncc(-c2c[nH]c3ccccc23)nc1-c1c[nH]c2ccccc12,TGI,786-0 renal,4.07 µM
same,TGI,A498 renal,4.56 µM
same,TGI,A549 NSCLC,19.4 µM
same,TGI,ACHN renal,6.88 µM
same,TGI,BT-549 breast,49.1 µM
same,TGI,CAKI-1 renal,11 µM
same,TGI,COLO 205 colon,5.2 µM
same,TGI,DU-145 prostate,20.9 µM
same,TGI,EKVX NSCLC,10.8 µM
same,TGI,HCC-2998 colon,4.1 µM
same,TGI,HCT-116 colon,12 µM
same,TGI,HCT-15 colon,16.4 µM
same,TGI,HL-60(TB) leukemia,> 100 µM
same,TGI,HOP-62 NSCLC,22 µM
same,TGI,HOP-92 NSCLC,8.33 µM
same,TGI,HS 578T breast,9.5 µM
same,TGI,HT29 colon,4.93 µM
same,TGI,IGROV1 ovarian,13.5 µM
same,TGI,K-562 leukemia,8.48 µM
same,TGI,KM12 colon,5.3 µM
same,TGI,LOX IMVI melanoma,5.33 µM
same,TGI,M14 melanoma,3.99 µM
same,TGI,MCF7 breast,12.9 µM
same,TGI,MDA-MB-231 breast,4.62 µM
same,TGI,MDA-MB-435,12.1 µM
same,TGI,MDA-N,4.54 µM
same,TGI,MOLT-4 leukemia,27.5 µM
same,TGI,NCI-H460 lung,4.99 µM
same,TGI,NCI/ADR-RES ovarian,88.3 µM
same,TGI,OVCAR-3 ovarian,18.6 µM
same,TGI,OVCAR-4 ovarian,17.8 µM
same,TGI,OVCAR-5 ovarian,16.9 µM
same,TGI,OVCAR-8 ovarian,23 µM
same,TGI,PC-3 prostate,13 µM
same,TGI,RPMI-8226 leukemia,> 100 µM
same,TGI,RXF 393 renal,4.11 µM
same,TGI,SF-268 CNS,25 µM
same,TGI,SF-295 CNS,6.48 µM
same,TGI,SF-539 CNS,25.3 µM
same,TGI,SK-MEL-2 melanoma,12.8 µM
same,TGI,SK-MEL-28 melanoma,5.73 µM
same,TGI,SK-MEL-5 melanoma,15.9 µM
same,TGI,SK-OV-3 ovarian,20.4 µM
same,TGI,SN12C renal,5.78 µM
same,TGI,SNB-19 CNS,14.8 µM
same,TGI,SNB-75 CNS,5.59 µM
same,TGI,SR leukemia,10.8 µM
same,TGI,SW-620 colon,11.8 µM
same,TGI,T-47D breast,19.9 µM
same,TGI,TK-10 renal,22.1 µM
same,TGI,U251 CNS,11.4 µM
same,TGI,UACC-257 melanoma,3.89 µM
same,TGI,UACC-62 melanoma,3.89 µM
same,TGI,UO-31 renal,13.3 µM
